In patent US20040063736A1, “Combination of active ingredients containing alfuzosine and apomorphine” (priority 2001, published 2004):

Test system: hypertensive rats (SHR)
Experiment: Erectile responses (number of erections, intracavernous pressure) in anaesthetised hypertensive rats
Details: for N animals with erections/N animals / Number of erections (mean ± sem): 30 min after infusion
[1] = alfuzosine 3, 10 or 30 μg/kg alone (i.v. infusion)
[2] = Table 2, apomorphine 50 μg/kg alone
[3] = apomorphine 10 μg/kg s.c. + 5% glucose infusion
[4] = apomorphine 20 μg/kg s.c. + 5% glucose infusion
[5] = apomorphine 50 μg/kg s.c. + 5% glucose infusion
[6] = apomorphine 100 μg/kg s.c. + 5% glucose infusion
[7] = apomorphine 250 μg/kg s.c. + 5% glucose infusion

In the case of COc1cc2nc(N(C)CCCNC(=O)C3CCCO3)nc(N)c2cc1OC (stereo not shown) [Alfuzosine], the AUC [1] is reported as 0 mmHg · sec, the Duration of erection [1] is reported as 0 s and the “n animal with erections/n animal” value [1] is reported as 0/6. For the same compound, the number of erections [1] was 0, the “ΔICP” value [1] was 0 mmHg and the “induction of erections per se” value (alfuzosine 3 to 100 μg/kg i.v. after vehicle of apomorphine) was “Neither 5% glucose nor alfuzosine (3 to 100 μg/kg i.v.) was able to induce per se erections”.

For CN1CCc2cccc3c2[C@H]1Cc1ccc(O)c(O)c1-3 [Apomorphine], the AUC [2] was 640 ± 216 mmHg · sec, the Duration of erection [2] was 105 ± 23 s and the “n animal with erections/n animal” value [2] was 9/9. For the same compound, the number of erections [2] was 2.6 ± 0.4, the “ΔICP” value [2] was 29 ± 7 mmHg and the AUC [3] was 0 mmHg · sec. The Duration [3] was 0 s, the ΔICP [3] was 0 mmHg and the “N animals with erections/N animals” value [3] was 0/8. The “Number of erections (mean ± sem)” value [3] was 0, the AUC [4] was 582 ± 172 mmHg · sec and the Duration [4] was 61 ± 7 s. For the same compound, the ΔICP [4] was 41.4 ± 13.9 mmHg, the “N animals with erections/N animals” value [4] was 5/10 and the “Number of erections (mean ± sem)” value [4] was 0.5000. The AUC [5] was 640 ± 215 mmHg · sec, the Duration [5] was 105 ± 23 s and the ΔICP [5] was 29.3 ± 6.5 mmHg. The “N animals with erections/N animals” value [5] was 9/9, the “Number of erections (mean ± sem)” value [5] was 2.5556 and the AUC [6] was 501 ± 193 mmHg · sec. The Duration [6] was 71 ± 19 s, the ΔICP [6] was 25.5 ± 8.2 mmHg and the “N animals with erections/N animals” value [6] was 9/9. For the same compound, the “Number of erections (mean ± sem)” value [6] was 3.1111, the AUC [7] was 1073 ± 237 mmHg · sec and the Duration [7] was 71 ± 19 s. For the same compound, the ΔICP [7] was 58.6 ± 9.7 mmHg, the “N animals with erections/N animals” value [7] was 6/6 and the “Number of erections (mean ± sem)” value [7] was 5.0000. For the same compound, the erectile responses (apomorphine 10-250 μg/kg s.c.) was “induced concentration-dependent erectile responses”, the “first dose triggering erections in some animals in comparison to the control group” value (apomorphine s.c.) was 0.02 mg/kg and the “first dose which induced at least one erectile event in all the animals” value (apomorphine s.c.) was 0.05 mg/kg. For the same compound, the number of erections (text b79, apomorphine 50 μg/kg alone) was 2.6±0.4.
